From patent EP3727043B1 (Golden Gait Biotech, S.L., priority 2017, dated 2019)
Where two headings read alike, the source gives them in different places.

Tests used:
[1] = system: rats with a unilateral 6-hydroxydopamine lesion; experiment: LIDs in rats with a unilateral 6-hydroxydopamine lesion; type: in vivo; conditions: parkinsonian rat model of LIDs
[2] = biological target: β2* nAChR (Homo sapiens, UniProt P17787); conditions: nAChR subtype: β2; cited from earlier work
[3] = biological target: α7 nAChR (Homo sapiens, UniProt P36544); conditions: nAChR subtype: α7; cited from earlier work
α7 nAChR, sequence (P36544 23-502): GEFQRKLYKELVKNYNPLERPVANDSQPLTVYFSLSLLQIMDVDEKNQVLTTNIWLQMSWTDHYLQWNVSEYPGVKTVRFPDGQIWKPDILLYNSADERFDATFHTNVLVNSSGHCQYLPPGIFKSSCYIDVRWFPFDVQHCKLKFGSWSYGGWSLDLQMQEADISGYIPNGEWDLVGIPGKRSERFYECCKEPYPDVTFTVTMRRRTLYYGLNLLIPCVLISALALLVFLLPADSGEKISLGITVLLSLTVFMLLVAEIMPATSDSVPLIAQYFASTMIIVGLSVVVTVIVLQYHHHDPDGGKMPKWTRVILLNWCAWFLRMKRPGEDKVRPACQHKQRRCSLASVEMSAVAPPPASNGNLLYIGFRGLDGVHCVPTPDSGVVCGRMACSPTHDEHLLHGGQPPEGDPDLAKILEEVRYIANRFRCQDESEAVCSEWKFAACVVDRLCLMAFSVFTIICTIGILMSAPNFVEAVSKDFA

[4] = cited from earlier work
[5] = cited from earlier work; remark: listed apart in the source
[6] = in vivo; cited from earlier work
[7] = system: patients with idiopathic PD and levodopa induced dyskinesias (LIDs)
Procedure: At the time the study was performed (2009), there was no FDA accepted instrument for measuring treatment efficacy for LIDs. Therefore, several secondary objectives were utilized to assess efficacy including the Unified Dyskinesia Rating Scale (UDysRS).
A total of 65 male and female subjects with idiopathic PD with LIDs were randomized in the study. The study consisted of 4 phases (FIG. 6A): screening phase (up to 3 weeks), double-blind treatment phase (10 weeks), taper phase (2 weeks), and follow-up phase (2 weeks). The approximate duration of the study for each subject was 17 weeks. […] During the double-blind treatment phase, dosing was begun at Visit 0 at 1 mg every 6 hours (total daily dose [TDD] = 4 mg/day) and escalated upwards at 2-week intervals as follows: 2 mg every 6 hours (TDD = 8 mg/day) at Visit 1 (Week 2); 4 mg every 6 hours (TDD = 16 mg/day) at Visit 2 (Week 4); 6 mg every 6 hours (TDD = 24 mg/day) at Visit 3 (Week 6). Subjects were maintained on 24 mg/day for 4 weeks. The subsequent taper phase (2 weeks total), beginning at Visit 4 (Week 10), consisted of 9 days of drug taper and 5 days off drug prior to Visit 5 (final safety visit). […] Ondansetron was provided by the sponsor and dispensed with each dose escalation step with instructions to use it for nausea and vomiting only during the first 4 days following dose initiation or escalation. […] No other dose down-titration was allowed. Table 5. Dose Escalation Schedule
A total of 65 patients with idiopathic PD and levodopa induced dyskinesias (LIDs) were randomized. Patients were required to have a diagnosis of idiopathic PD and be within a Hoehn & Yahr Stage II - IV while in a peak "ON" state(levodopa in a therapeutic range). They had to have moderate to severely disabling LIDs for at least 25% of the waking day, as determined by Questions 32 and 33 in Part II of the UPDRS and a Mini-Mental State Examination (MMSE) score of ≥26. Patients with atypical Parkinson disorders, prior deep brain stimulation (DBS), unstable angina, a history of ventricular arrhythmias, or active peptic ulcer or a history of schizophrenia, schizoaffective disorder, or bipolar disease were excluded. Patients who actively smoked were also excluded. Table 9: Demographics
The drug, or a placebo identical in appearance and packaging, was administered orally 4 times a day in a blinded fashion. Patients were examined while in an "ON" state, when levodopa was in a therapeutic range. During the treatment phase, dosing was begun at 1 mg every 6 hours (total daily dose=4 mg/day) and escalated upwards at 2-week intervals as follows: 2 mg every 6 hours at Visit 1; 4 mg every 6 hours at Visit 2; 6 mg every 6 hours at Visit 3. Patients were maintained on 24 mg/day for 4 weeks. All patients, study site personnel, raters and the sponsor were blinded to treatment assignment.
The original UPDRS scale was used. […] In the UPDRS Part II, Question 13 is on Falling unrelated to Freezing. […] In Part II, Question 14 is on Freezing when Walking. This is a 5-point item and has two variables freezing and falls. […] Questions 13 and 14 were compared separately (Table 11). […] Table 10: UPDRS Part II (ADL), UPDRS Part III (Motor Examination)
LIDs were assessed by the UDysRS, the main measure of LIDs (Table 12). […] The study was conducted in accordance with the Declaration of Helsinki and Good Clinical Practice Guidelines. All sites received approval from an institutional review board and written informed consent was obtained from each patient prior to participation. Table 12. Unified Dyskinesia Rating Scale (UDysRS)
All hypotheses were tested using 2-sided tests with alpha set at the 0.050 level of significance. In general, efficacy data were summarized by treatment group, and safety data were summarized by treatment group and overall.

[8] = system: α4β2* nAChR knockout mice
Description: Multiple receptors exist throughout the body with α1β1*, α3β4* and α7 nAChRs being the major subtypes in the peripheral nervous system and α4β2*, α6β2* and α7 nAChRs the primary ones in the brain. The *asterisk denotes the presence of other nAChR subunits in the receptor.

[9] = system: rats and mice; conditions: oral application, injection and slow-release minipumps
[10] = system: patients with idiopathic PD and levodopa induced dyskinesias (LIDs); conditions: for worsening of Parkinson symptoms (UPDRS Part III, Hoehn and Yahr scales): during the study
Procedure: Efficacy was measured with the Unified Dyskinesia Rating Scale (UDysRS), a semi- quantitative assessment, FDA-validated instrument to assess gait, balance and dyskinesia in PD. […] Dosing was begun at 1 mg every 6 hours to a final dose of 24 mg per day.
All hypotheses were tested using 2-sided tests with alpha set at the 0.050 level of significance. In general, efficacy data were summarized by treatment group, and safety data were summarized by treatment group and overall. In all analyses, assumptions such as normality and homogeneity of variance were examined prior to conducting the proposed parametric statistical procedures. Categorical variables were analyzed by Fisher's exact 2- tailed test and continuous variables were tested under 2-sample t-tests. The equality of variances was examined using an F-test before applying the 2-sample t-test.

[11] = Phase 2 data used for sample size calculation

β2* nAChR, sequence (P17787 26-502): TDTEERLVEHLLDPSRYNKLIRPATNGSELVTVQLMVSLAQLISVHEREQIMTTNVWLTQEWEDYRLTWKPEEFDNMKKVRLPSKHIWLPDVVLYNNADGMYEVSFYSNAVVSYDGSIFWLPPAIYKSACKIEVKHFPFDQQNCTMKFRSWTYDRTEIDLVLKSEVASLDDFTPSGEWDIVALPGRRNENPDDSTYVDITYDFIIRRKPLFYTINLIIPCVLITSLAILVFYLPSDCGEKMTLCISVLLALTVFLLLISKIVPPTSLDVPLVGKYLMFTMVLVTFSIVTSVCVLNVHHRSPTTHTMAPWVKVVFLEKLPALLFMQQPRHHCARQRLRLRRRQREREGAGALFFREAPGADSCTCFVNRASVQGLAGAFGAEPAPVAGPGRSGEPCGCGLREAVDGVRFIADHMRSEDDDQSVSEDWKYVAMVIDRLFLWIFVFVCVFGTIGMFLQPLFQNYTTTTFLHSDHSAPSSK

In the case of c1cncc(OC[C@@H]2CCN2)c1 [A-85380], the “reduction of LIDs” value [1] is reported as “reduced LIDs to varying extents”.
For Cc1ncccc1OC[C@@H]1CCCN1 [ABT-089], the Ki [2] is given as 17 nM.
In the case of c1cc2cc(-c3ccc(O[C@H]4CN5CCC4CC5)nn3)ccc2[nH]1 [ABT-107], the Ki [3] is given as 0.5 nM.
For Clc1cc(N2C[C@@H]3CN[C@@H]3C2)cnc1Cl [ABT-894], the Ki [2] is given as 0.3 nM.
For Cc1ccc(-c2ccc(OC3CN4CCC3CC4)cn2)cc1 (centres unmarked) [AQW051], the Ki [3] is listed as 27 nM.
For O=C(c1ccc(Cl)o1)N1CC2CNCC2C1 (centres unmarked) [AZD 1446], the Ki [2] is given as 30 nM.
In the case of C[C@@](Cc1ccc(O)c(O)c1)(NN)C(=O)O [Carbidopa, (-)-L-α-hydrazino-α-methyl-β-(3,4-dihydroxybenzene) propanoic acid monohydrate], the “reduction of the amount of levodopa required to produce a given response” value ([4]; in vivo) is listed as “about 75%” and the solubility in water [5] is listed as “slightly soluble in water”.
In the case of N[C@@H](Cc1ccc(O)c(O)c1)C(=O)O [Levodopa, (S)-2-amino-3-(3,4-dihydroxyphenyl) propanoic acid], the “plasma half-life of levodopa” value ([4]; without carbidopa) is given as 50 min and the solubility in water [5] is given as “slightly soluble in water”.
In the case of CN1CCC[C@H]1c1cccnc1 [Nicotine, (S)-3-[1-methylpyrrolidin-2-yl]pyridine, reference compound], the oral bioavailability [6] is given as “approximately 30%”, the “UDysRS part III, Week 10 result; change from baseline, mean” value [7, 11] is given as 5.2 and the “UDysRS walking, Week 10 result; change from baseline, mean” value [7, 11] is given as 4.4. For the same compound, the “PGI-C responders (subjects with a score of 1, 2, or 3)” value ([7]; Visit 4 (Week 10), 21 responders, p = 0.0048 vs placebo) was 77.8%, the “number of LF-ADL responders (subjects with ≥25% reduction from baseline), difference between treatment groups” value ([7]; Visit 4 (Week 10), p = 0.0453) was “statistically significant difference” and the “Gait-subtest of the UDysRS versus placebo” value ([7]; human, in vivo) was “statistically superior to placebo”. The “patient- and physician-rated assessments of efficacy versus placebo” value ([7]; human, in vivo) was “superior to placebo”, the antidyskinetic effect [8] was “did not exert an antidyskinetic effect” and the “reduction of LIDs” value [9] was “reduced LIDs”. The “worsening of Parkinson symptoms (UPDRS Part III, Hoehn and Yahr scales)” value [10] was “no worsening of Parkinsonian symptoms”, the “worsening of Parkinson symptoms (UPDRS Part III, Hoehn and Yahr scales)” value ([10]; listed as nicotine) was “did not cause any worsening of the PD symptoms” and the “subjects who completed the study” value ([10]; of 35 randomized) was 25 subjects. For the same compound, the “subjects who withdrew because of AEs” value ([10]; of 35 randomized) was 6 subjects, the “subjects who withdrew because of protocol violations” value ([10]; of 35 randomized) was 2 subjects and the “subjects who withdrew from the study” value ([10]; of 35 randomized) was 10 subjects. For the same compound, the “subjects who withdrew because of AEs” value ([10]; of 35 randomized, listed as nicotine) was “Six”.
For CN[C@@H](C)C/C=C/c1cncc(OC(C)C)c1 [TC-2696], the “reduction of LIDs” value [1] was “reduced LIDs to varying extents”.
In the case of c1cnc2cc3c(cc2n1)[C@@H]1CNC[C@H]3C1 [Varenicline], the “reduction of LIDs” value [1] is reported as “reduced LIDs to varying extents”.
For OCCCCC#Cc1cncc(OC[C@@H]2CCN2)c1 [sazetidine], the “reduction of LIDs” value [1] was “reduced LIDs to varying extents”.
